The subject of the experiment is T1, Lip7.
T1 construct: theoretical 43 kDa, 47 kDa by SEC, 37 kDa by SDS-PAGE; monomer
Put plainly: spectrophotometric p-nitrophenol release, allosteric sigmoidal fit. The experiment is classed as biochemical, Geobacillus sp. ID17. The note with it: 25 °C, pH 8.0, 50 mM potassium phosphate, read-out: K1/2. An excerpt: spectrophotometric p-nitrophenol release, allosteric sigmoidal fit on Lip7

Where two headings read alike, the source gives them in different places.

As to `CC(=O)Oc1ccc([N+](=O)[O-])cc1` [p-nitrophenyl acetate], where the note is “2% (v/v) Triton X-100, Hill n 1.9 ± 0.5”, the Km turned out to be 3400 ± 700 µM.
For the molecule `CCCCCCCCCC(=O)Oc1ccc([N+](=O)[O-])cc1` [p-nitrophenyl decanoate], where the note is “2% (v/v) Triton X-100, Hill n 3.1 ± 1.4”, the Km worked out at 2200 ± 300 µM.
For the molecule `CCCCCCCCCCCC(=O)Oc1ccc([N+](=O)[O-])cc1` [p-nitrophenyl laurate], the Km (2% (v/v) Triton X-100 (mixed micelles; interfacial), Hill n 1.8 ± 0.4) is 1700 ± 400 µM.
As to `CCCCCCCCCCCCCC(=O)Oc1ccc([N+](=O)[O-])cc1` [p-nitrophenyl myristate], the Km (2% (v/v) Triton X-100, Hill n 3.2 ± 0.6) is 1400 ± 100 µM.
`CCCCCCCC(=O)Oc1ccc([N+](=O)[O-])cc1` [p-nitrophenyl octanoate]: the Km (2% (v/v) Triton X-100, Hill n 2.4 ± 0.8) came out at 1600 ± 300 µM.

(Values after paper PMC11277018, “Recombinant Expression and Characterization of a Novel Thermo-Alkaline Lipase with Increased Solvent Stability from the Antarctic Thermophilic Bacterium Geobacillus sp. ID17” (International Journal of Molecular Sciences, 2024).)
